Measured values as given in US9963442B2, “Pyridones as herbicides” (E I DU PONT DE NEMOURS AND COMPANY, priority 2014, dated 2018).

Legend:
Assay in all cases: Test C postemergence
Assay type in all cases: in vivo
Conditions in all cases: scale 0 to 100, 0 is no effect, 100 is complete control
[1] = test system: yellow nutsedge (Cyperus esculentus)
From the text: (§1) Seeds of plant species selected from blackgrass (Alopecurus myosuroides), Italian ryegrass (Lolium multiflorum), winter wheat (Triticum aestivum), galium (catchweed bedstraw, Galium aparine), corn (Zea mays), large (Lg) crabgrass (Digitaria sanguinalis), giant foxtail (Setaria faberii), johnsongrass (Sorghum halepense), lambsquarters (Chenopodium album), morningglory (Ipomoea coccinea), yellow nutsedge (Cyperus esculentus), pigweed (Amaranthus retroflexus), ragweed (common ragweed, Ambrosia elatior), soybean (Glycine max), barnyardgrass (Echinochloa crus-galli), oilseed rape (Brassica napus), waterhemp (common waterhemp, Amaranthus rudis), and velvetleaf (Abutilon theophrasti) were planted into a blend of loam soil and sand and treated preemergence with test chemicals formulated in a non-phytotoxic solvent mixture which included a surfactant. At the same time, plants selected from these crop and weed species and also chickweed (common chickweed, Stellaria media), kochia (Kochia scoparia), and wild oat (Avena fatua), were planted in pots containing Sunshine Redi-Earth® planting medium comprising spaghnum peat moss, vermiculite, starter nutrients and dolomitic limestone and treated with postemergence applications of test chemicals formulated in the same manner. Plants ranged in height from 2 to 18 cm (1- to 4-leaf stage) for postemergence treatments. Treated plants and controls were maintained in a greenhouse for 13 to 15 days, after which time all species were compared to controls and visually evaluated. Plant response ratings, summarized in Table C, are based on a scale of 0 to 100 where 0 is no effect and 100 is complete control. A dash (-) response means no test result.

[2] = test system: chickweed (common chickweed, Stellaria media)
From the text: as §1

wild oat (Avena fatua) = test system: wild oat (Avena fatua)
From the text: as §1

[3] = test system: ragweed (common ragweed, Ambrosia elatior)
From the text: as §1

[4] = test system: blackgrass (Alopecurus myosuroides)
From the text: as §1

[5] = test system: pigweed (Amaranthus retroflexus)
From the text: as §1

[6] = test system: winter wheat (Triticum aestivum)
From the text: as §1

soybean (Glycine max) = test system: soybean (Glycine max)
From the text: as §1

[7] = test system: lambsquarters (Chenopodium album)
From the text: as §1

kochia (Kochia scoparia) = test system: kochia (Kochia scoparia)
From the text: as §1

[8] = test system: morningglory (Ipomoea coccinea)
From the text: as §1

[9] = test system: giant foxtail (Setaria faberii)
From the text: as §1

[10] = test system: barnyardgrass (Echinochloa crus-galli)
From the text: as §1

[11] = test system: johnsongrass (Sorghum halepense)
From the text: as §1

[12] = test system: oilseed rape (Brassica napus)
From the text: as §1

**Q.** Which results are given for O=c1cccc(Oc2ncc(Cl)cn2)n1-c1ncc(Cl)cn1 [Compound 6]?
**A.** Plant response rating, Nutsedge, Yellow ([1]; 16 g ai/ha): 0; Plant response rating, Nutsedge, Yellow ([1]; 31 g ai/ha): 5; Plant response rating, Nutsedge, Yellow ([1]; 62 g ai/ha): 5; Plant response rating, Nutsedge, Yellow ([1]; 125 g ai/ha): 5; Plant response rating, Chickweed ([2]; 16 g ai/ha): 50; Plant response rating, Chickweed ([2]; 31 g ai/ha): 55; Plant response rating, Chickweed ([2]; 62 g ai/ha): 60; Plant response rating, Chickweed ([2]; 125 g ai/ha): 55; Plant response rating, Oat, Wild (wild oat (Avena fatua); 16 g ai/ha): 0; Plant response rating, Oat, Wild (wild oat (Avena fatua); 31 g ai/ha): 0; Plant response rating, Oat, Wild (wild oat (Avena fatua); 62 g ai/ha): 0; Plant response rating, Oat, Wild (wild oat (Avena fatua); 125 g ai/ha): 0; Plant response rating, Ragweed ([3]; 16 g ai/ha): 25; Plant response rating, Ragweed ([3]; 31 g ai/ha): 45; Plant response rating, Ragweed ([3]; 62 g ai/ha): 40; Plant response rating, Ragweed ([3]; 125 g ai/ha): 70; Plant response rating, Blackgrass ([4]; 16 g ai/ha): 0; Plant response rating, Blackgrass ([4]; 31 g ai/ha): 0; Plant response rating, Blackgrass ([4]; 62 g ai/ha): 5; Plant response rating, Blackgrass ([4]; 125 g ai/ha): 5; Plant response rating, Pigweed ([5]; 16 g ai/ha): 70; Plant response rating, Pigweed ([5]; 31 g ai/ha): 70; Plant response rating, Pigweed ([5]; 62 g ai/ha): 75; Plant response rating, Pigweed ([5]; 125 g ai/ha): 85; Plant response rating, Wheat ([6]; 16 g ai/ha): 0; Plant response rating, Wheat ([6]; 31 g ai/ha): 0; Plant response rating, Wheat ([6]; 62 g ai/ha): 0; Plant response rating, Wheat ([6]; 125 g ai/ha): 0; Plant response rating, Soybean (soybean (Glycine max); 16 g ai/ha): 40; Plant response rating, Soybean (soybean (Glycine max); 31 g ai/ha): 45; Plant response rating, Soybean (soybean (Glycine max); 62 g ai/ha): 60; Plant response rating, Soybean (soybean (Glycine max); 125 g ai/ha): 70; Plant response rating, Lambsquarters ([7]; 16 g ai/ha): 20; Plant response rating, Lambsquarters ([7]; 31 g ai/ha): 35; Plant response rating, Lambsquarters ([7]; 62 g ai/ha): 65; Plant response rating, Lambsquarters ([7]; 125 g ai/ha): 70; Plant response rating, Kochia (kochia (Kochia scoparia); 16 g ai/ha): 50; Plant response rating, Kochia (kochia (Kochia scoparia); 31 g ai/ha): 60; Plant response rating, Kochia (kochia (Kochia scoparia); 62 g ai/ha): 80; Plant response rating, Kochia (kochia (Kochia scoparia); 125 g ai/ha): 85; Plant response rating, Morningglory ([8]; 16 g ai/ha): 50; Plant response rating, Morningglory ([8]; 31 g ai/ha): 75; Plant response rating, Morningglory ([8]; 62 g ai/ha): 65; Plant response rating, Morningglory ([8]; 125 g ai/ha): 80; Plant response rating, Foxtail, Giant ([9]; 16 g ai/ha): 5; Plant response rating, Foxtail, Giant ([9]; 31 g ai/ha): 5; Plant response rating, Foxtail, Giant ([9]; 62 g ai/ha): 5; Plant response rating, Foxtail, Giant ([9]; 125 g ai/ha): 10; Plant response rating, Barnyardgrass ([10]; 16 g ai/ha): 5; Plant response rating, Barnyardgrass ([10]; 31 g ai/ha): 5; Plant response rating, Barnyardgrass ([10]; 62 g ai/ha): 5; Plant response rating, Barnyardgrass ([10]; 125 g ai/ha): 10; Plant response rating, Johnsongrass ([11]; 16 g ai/ha): 0; Plant response rating, Johnsongrass ([11]; 31 g ai/ha): 5; Plant response rating, Johnsongrass ([11]; 62 g ai/ha): 5; Plant response rating, Johnsongrass ([11]; 125 g ai/ha): 5; Plant response rating, Oilseed Rape ([12]; 16 g ai/ha): 5; Plant response rating, Oilseed Rape ([12]; 31 g ai/ha): 15; Plant response rating, Oilseed Rape ([12]; 62 g ai/ha): 20; Plant response rating, Oilseed Rape ([12]; 125 g ai/ha): 10
